Data published in US5656662A, “Synthesis of optically pure 4-alkenyl- or 4-alkanyl-2-hydroxytetronic acids” (The Ohio State University Research Foundation, priority 1995, dated 1997).

Tests used:
Type in all cases: cell-based
Design in all cases: key: NE: No effect; INHIB: Inhibition; STIM: Stimulation; IC40: 40% Inhibitory Concentration; EC50: 50% Effective Concentration; TC: Tolerated Concentration; IA: Interferes with Assay
IL-6 = IL-6 secretion from purified human monocytes
Protocol: This assay determines the effect of test compounds on the secretion of IL-6 from purified human monocytes. Compounds are tested for their ability to downregulate the production of IL-6 in activated monocytes, or upregulate secretion of IL-6 in unstimulated monocytes. Test compounds are incubated for sixteen hours with purified human monocytes at four dilutions over a range of three log10 concentrations. Where appropriate, lipopolysaccharide (LPS) is used to stimulate the monocytes.
The level of IL-6 in the resultant supernatants is quantitated in a solid phase Enzyme-linked Immunoassay (EIA) performed in a 96 well format. IL-6 present in the samples is captured by a specific monoclonal antibody immobilized on the well, and probed with an anti-IL-6 polyclonal antibody conjugated to horseradish peroxidase, followed by an appropriate substrate. The levels of IL-6 are determined by interpolation of the resultant color change in the substrate from a standard curve. All supernatants are tested in duplicate with controls and standards.

purified human monocytes = assay: Chemotactic response of purified human monocytes; conditions: STIMULATED
Protocol: This assay measures the ability of test compounds to modulate the chemotactic response of purified human monocytes in response to a chemoattractant. Compounds are tested at four dilutions over a range of three log10 concentrations. The test compounds are combined with monocytes labeled with a fluorescent indicator and placed in the top wells of a chemotaxis chamber, above an optimized concentration of a monocyte chemoattractant placed in the wells below, and separated by a microporous filter. After sixty minutes, the migration of cells through the filter is quantified flurorometrically, and expressed in relation to spontaneous and maximum controls. All tests are carried out in triplicate.

[1] = system: adhesion of purified human monocytes to human umbilical vein endothelial cell (HUVEC) cultures; assay: Adhesion of purified human monocytes to HUVEC cultures; conditions: STIMULATED
Protocol: This assays measures the ability of test compounds to modulate adhesion of purified human monocytes to human umbilical vein endothelial cell (HUVEC) cultures. HUVECs are cultured to confluence in 96-well plates. Purified human monocytes are labelled with fluorescent dye. Triplicate cultures of HUVECs and monocytes are treated with four dilutions of test compound over a range of three log10 concentrations, in addition to stimulated and unstimulated controls. One hour after treatment, TNFα is added to HUVEC cultures to stimulate production of adhesion molecules. After a twelve hour incubation, the treated monocytes are added to their corresponding HUVEC cultures and incubated for ten minutes. The stimulation index (S.I.) is determined by comparing the fluorescence of treated cultures to untreated controls using a fluorometric readout in a 96-well format.

[2] = system: normal human mononuclear cells; assay: Two Way Mixed Lymphocyte Reaction
Protocol: (§1) The purpose of this procedure is to determine the effect of test compounds on Mixed Lymphocyte Reaction and Mitogen-Induced Proliferation of normal human mononuclear cells.
Procedure for Two Way Mixed Lymphocyte Reaction: PBMNC from two different donors are added to a 96-well cell culture plate. Four dilutions of test compounds, over a range of three log10 in quadruplicate, along with negative and inhibitory controls are then added to the plate and incubated for six days. Cultures are subsequently pulsed, harvested, and counted as above.

[3] = system: normal human mononuclear cells; assay: PHA mitogen-stimulated cell proliferation
Protocol: as §1
(§2) Procedure for Cell Proliferation: Peripheral blood mononuclear cells (PBMNC) are added to a 96-well cell culture plate. Compounds are tested at four dilutions, in quadruplicates, over a range of three log10 concentrations along with negative an inhibitory controls. The test compounds are incubated with the cells for one hour, phytohemagglutinin (PHA) is then added to all reactive test wells and the cultures are incubated for three days. The cultures are then pulsed with ^3 H incorporation is then determined with a Wallac Betaplate counter.
as §2, with “incubated with,” for “incubated with”, “for thee” for “for three”

CCCCCCCCCCCCCC/C=C\CC[C@@H]1OC(=O)C(O)=C1O [(S)-3,4-Dihydroxy-5-[(Z)-3-octadecenyl]-2(5H)-furanone]
NE: EFFECT on IL6 (IL-6; STIMULATED) | EFFECT on IL6 (IL-6; UNSTIMULATED) | EFFECT on CHEMOTAXIS (purified human monocytes) | EFFECT on ADHESION [1] | EFFECT on MLR [2] | EFFECT on PHA [3]
